Reference: the supplement of paper PMC13380429

Tests used:
Conditions in all cases: 72 h
[1] = tested on: HepG2; assay: relative viability EC50 (midpoint between 100% and the lowest measured viability); higher = less toxic
[2] = tested on: Calu-3; assay: as above
[3] = tested on: U2OS; assay: as above
[4] = tested on: Vero E6; assay: as above
[5] = tested on: Caco-2; assay: as above
[6] = tested on: HepG2; assay: drug sensitivity score (DSS) for viability; higher = more toxic; extreme values may be limits of the assay
[7] = tested on: Calu-3; assay: as above
[8] = tested on: U2OS; assay: as above
[9] = tested on: Vero E6; assay: as above
[10] = tested on: Caco-2; assay: as above
[11] = tested on: HepG2; assay: cell viability relative to DMSO; higher = less toxic
[12] = tested on: Calu-3; assay: as above
[13] = tested on: U2OS; assay: as above
[14] = tested on: Vero E6; assay: as above
[15] = tested on: Caco-2; assay: as above

Structure (SMILES) | relative viability EC50 [1] [µM] | relative viability EC50 [2] [µM] | relative viability EC50 [3] [µM] | relative viability EC50 [4] [µM] | relative viability EC50 [5] [µM] | drug sensitivity score [6] | drug sensitivity score [7] | drug sensitivity score [8] | drug sensitivity score [9] | drug sensitivity score [10] | cell viability ([11]; 1 nM) [%] | cell viability ([11]; 10 nM) [%] | cell viability ([11]; 100 nM) [%] | cell viability ([11]; 1000 nM) [%] | cell viability ([11]; 10000 nM) [%] | cell viability ([12]; 1 nM) [%] | cell viability ([12]; 10 nM) [%] | cell viability ([12]; 100 nM) [%] | cell viability ([12]; 1000 nM) [%] | cell viability ([12]; 10000 nM) [%] | cell viability ([13]; 1 nM) [%] | cell viability ([13]; 10 nM) [%] | cell viability ([13]; 100 nM) [%] | cell viability ([13]; 1000 nM) [%] | cell viability ([13]; 10000 nM) [%] | cell viability ([14]; 1 nM) [%] | cell viability ([14]; 10 nM) [%] | cell viability ([14]; 100 nM) [%] | cell viability ([14]; 1000 nM) [%] | cell viability ([14]; 10000 nM) [%] | cell viability ([15]; 1 nM) [%] | cell viability ([15]; 10 nM) [%] | cell viability ([15]; 100 nM) [%] | cell viability ([15]; 1000 nM) [%] | cell viability ([15]; 10000 nM) [%]
CN(C)c1nc(N(C)C)nc(N(C)C)n1 [altretamine] | > 10 | > 10 | > 10 | > 10 | > 10 | 0 | 0 | 0 | 0 | 0 | 97.3 | 96.7 | 94.9 | 96 | 93.9 | 92.7 | 95.6 | 111 | 99.3 | 102 | 100 | 104 | 96.5 | 103 | 97.2 | 104 | 98.3 | 95.5 | 93 | 101 | 97.8 | 100 | 99.8 | 106 | 89.9
CCN(CC)C(C)C(=O)c1ccccc1 (stereo not given) [amfepramone] | > 10 | > 10 | > 10 | > 10 | > 10 | 0 | 0 | 0 | 0 | 0 | 106 | 102 | 100 | 96.6 | 101 | 109 | 85.5 | 93.6 | 93.7 | 103 | 100 | 95.3 | 98.1 | 95.2 | 98.6 | 92.3 | 102 | 106 | 106 | 86.8 | 117 | 95.9 | 103 | 102 | 128
C[C@@H]1[C@H](O)[C@@H](C)/C=C/C=C/C=C/C=C/C=C/C=C/C=C/[C@H](O[C@@H]2O[C@H](C)[C@@H](O)[C@H](N)[C@@H]2O)C[C@@H]2O[C@](O)(C[C@@H](O)C[C@@H](O)[C@H](O)CC[C@@H](O)C[C@@H](O)CC(=O)O[C@H]1C)C[C@H](O)[C@H]2C(=O)O [amphotericin-b] | > 10 | > 10 | > 10 | > 10 | > 10 | 0 | 0 | 0 | 0 | 0 | 97.4 | 102 | 101 | 101 | 101 | 98.4 | 105 | 95.7 | 103 | 99.5 | 101 | 97 | 101 | 97.6 | 101 | 101 | 102 | 103 | 101 | 99.6 | 106 | 91.1 | 108 | 100 | 98.6
CCCNC(C)C(=O)Nc1c(C)csc1C(=O)OC (stereo not given) [articaine] | > 10 | > 10 | > 10 | > 10 | > 10 | 0 | 0 | 0 | 0 | 0 | 97.9 | 105 | 110 | 104 | 112 | 94 | 94.6 | 100 | 93.5 | 106 | 96.5 | 95.8 | 99.7 | 92.8 | 105 | 93.4 | 93.1 | 96.1 | 97.3 | 108 | 98.5 | 96.7 | 95.2 | 104 | 105
C[C@H]1[C@H](C)CC[C@]2(C(=O)O)CC[C@]3(C)C(=CC[C@@H]4[C@@]5(C)C[C@@H](O)[C@H](O)[C@@](C)(CO)[C@@H]5CC[C@]43C)[C@H]12 [asiatic-acid] | > 10 | > 10 | > 10 | > 10 | > 10 | 0 | 0 | 0 | 0 | 0.4 | 83.4 | 80.2 | 78.6 | 90.2 | 88.9 | 98.3 | 93.2 | 106 | 90.6 | 97.5 | 98.1 | 105 | 95.6 | 104 | 96.9 | 106 | 111 | 106 | 93 | 105 | 101 | 104 | 89.2 | 94.2 | 95.6
CN(C)C(=O)Nc1cccc(-c2ccc(N(C)C)cc2)c1 [atglistatin] | > 10 | > 10 | > 10 | > 10 | > 10 | 0 | 0 | 0 | 0 | 0 | 98.2 | 97.9 | 99.4 | 108 | 113 | 111 | 99.2 | 90.1 | 96.6 | 103 | 96.4 | 99.3 | 97.8 | 98.5 | 96.5 | 99 | 99.7 | 98.3 | 97.6 | 107 | 84.3 | 100 | 92.2 | 88.7 | 104
CN1C(=O)COc2c(C(=O)NC3CN4CCC3CC4)cc(Cl)cc21 (stereo not given) [azasetron] | > 10 | > 10 | > 10 | > 10 | > 10 | 0 | 0 | 0 | 0 | 0 | 91.6 | 99 | 87.9 | 94.5 | 96.2 | 91.4 | 93.1 | 103 | 110 | 111 | 101 | 91.4 | 95.6 | 99 | 99.2 | 102 | 94.4 | 91.8 | 86.2 | 105 | 98.4 | 94.9 | 96.6 | 98.7 | 98.5
